In patent US20040192638A1, “Method and composition for prolonging the residence time of drugs in the gut” (priority 2001, published 2004):
“Also recorded” adds a separate entry of the source. One block for each compound: values may come before it.

Columns and labels:
rat small intestine [1] = test: Sustained Spike Potential (SSP) myoelectric bioassay, infusion into the duodenum via cannula in instrumented uninfected rats; format: in vivo; conditions: for SSP frequency compared with saline controls / background (in words): 0.2 ml infused into intestinal lumen, FIG. 3; for stimulation / induction of SSP above background levels (in words): infused into intestinal lumen, concentration not stated at the place
From the text: Outbred male rats (Sprague Dawley, Harlan Sprague Dawley, Inc., Indianapolis, Ind.) were housed singly and maintained on a 12-hour light/12-hour dark cycle. All rats used in the bioassay procedure were uninfected with tapeworms. The design and surgical implantation procedure of the intestinal extracellular bipolar electrodes have been described previously (Dwinell et al., 1994, 1997). Briefly, four bipolar electrodes were surgically sutured to the intestinal serosa of each rat according to the methods of Dwinell et at. (1994), which is incorporated herein by reference. Three electrodes (J1-J3) were implanted on the jejunum at 10 cm intervals, with the first electrode (J1) placed 10 cm caudal from the ligament of Treitz and proceeding caudally with J2 and J3. A fourth electrode (designated “I” because it was placed within the ileum) was placed 20 cm orad from the ileo-caecal junction. In addition, a cannula was implanted with one end residing in the lumen of the mid-duodenum, whereas the other end was exteriorized to allow infusion of test fractions.
All compounds tested were infused into the duodenum via the cannula. Compounds were delivered in 0.2 ml aliquots followed immediately by a 0.2 ml saline cannula rinse. These volumes were used in order to prevent muscle contraction due to stretch from larger bolus volumes. To observe the induction of SSP, intestinal myoelectric activity was recorded for 90 minutes following infusion.
Consistent with the protocol of Dwinell et al. (1994), intestinal myoelectric activity was not recorded for the first five days after implantation surgery. Control recordings were taken after this period to assure the return of normal myoelectric patterns of the MMC following the cessation of post-surgical ileus. Periodic “control” recordings were made with saline on the intervening days between the tests with tapeworm-conditioned medium (TCM) or its fractions.
In vivo intestinal myoelectric activity was recorded with a polygraph chart recorder (Grass Instruments, Quincy, Mass.). The myoelectric signal from each electrode was simultaneously recorded on paper and by a personal computer with an I/O board and WINDAQ software (Dataq Instruments, Akron, Ohio) connected to the polygraph recorder by an analog-to-digital converter (Dataq Instruments).
Food was removed on each recording day at 0800 hour to prevent animal feeding and the subsequent disruption of the interdigestive myoelectric pattern. Recording occurred between 1300 and 1900 hours. All recording sessions for each animal were at least 1.5 hour in duration, and all animals were recorded while awake and unrestrained. Vehicle (0.9% saline or in some cases RPMI 1640) was used as control for test substances.
Five days after electrode and cannula implantation surgery, three consecutive baseline 90-minute recordings were made on separate days in each rat to confirm the presence of normal intestinal myoelectric activity at the end of the immediate post surgical period.
Secreted compounds were infused via the duodenal cannula and the frequency of the sustained spike potential (SSP) electrical patterns was determined from recordings of myoelectric activity. […] The third and final phase of the MMC (marked by arrowheads) is a period of >90% spiking and represents a series of contractions migrating orad to caudad along the small intestine. The caudad migration of phase III between electrode sites propels lumenal content toward the caecum.
Cyclic nucleotides were degraded to their 5′-monophosphate derivatives by incubation with bovine brain phosphodiesterase (PDE; cat. # P-0134, Sigma Co., St. Louis, Mo.).

[2] = tested on: Male Ross x Ross broiler chicks; test: Effect of cGMP on feed conversion ratio in broiler chicks; format: in vivo; conditions: for Feed Conversion Ration FCR / Feed Intake / Gain: Experiment 1; for Feed Intake / Gain: per pen of 5 chicks, 10 mg cGMP/kg of feed and/or 100 mg succinate/kg of feed, terminated after week 2
Protocol: cGMP for use in this Example was manufactured by ICN Biomedicals (Irvine, Calif.), and purchased from Fisher Scientific (Hampton, N.H.). Male Ross x Ross broiler chicks were obtained from Sunnyside Hatchery (Beaver Dam, Wis.). Standard commercial chick mash was used as a base ration. cGMP with and without succinate was dissolved in water and sprayed as a mist onto the basal diet during continuous mixing. […] Diets were prepared 1 to 3 days prior to the start of the experiment and stored in individual plastic buckets (1 bucket/replicate). Chicks were randomly placed into treatment groups with 5 birds per replicate. Chicks were weighed as a group, so each pen of 5 animals represents n=1. Treatments and replicates were randomly assigned (via a random number generator) to pens. Chicks were fed ad libitum and checked daily. Feed intake and pen weight were recorded weekly. Feed conversion ratios were calculated as grams of feed consumed/grams of weight gain in the animals. […] The results are shown in Table 2 for two sets of experiments. Experiment 1 was to run for 3 weeks, but was accidentally disrupted during the third week.

rat small intestine [3] = test: SSP myoelectric recording after intragastric (per os) or intraperitoneal cGMP; format: in vivo; conditions: data not shown
Protocol: For intragastric infusion, rats (n=4) were lightly sedated with Halothane in order to insert a gastric tube per os and infused with 0.3 ml of 10 mM cGMP in saline directly into the lumen of the stomach. Thirty minutes of control myoelectric recording were always performed before infusion of any substance. Five to seven minutes after infusion, the rats were reconnected to the recorder. […] This procedure was repeated with the same rats on a different day with 0.3 ml 100 mM cGMP (equal to 100× the minimal dose required to increase SSP frequency by infusion into the lumen of the small intestine) and on a separate day with 0.3 ml saline as a vehicle control. Post-oral dosing myoelectric recordings were 90 minutes in duration.
Neither cGMP (1.0 ml of 100 mM) injected intraperitoneally nor cGMP (0.3 ml of 10 mM and 100 mM) introduced into the stomach per os initiated the SSP pattern in the small intestine (data not shown).

[4] = Effect of cGMP on drug uptake: atenolol in blood after intraduodenal infusion; format: in vivo, rat; conditions: atenolol 1 mg/kg intraduodenal; 0.2 ml of 10 mM cGMP 15 minutes prior to and 15 minutes after atenolol; same rats, FIG. 4
Protocol: Thus, a model drug, atenolol, was introduced directly into the lumen of the rat's small intestine, and the concentration of atenolol was measured in the blood over time. The blood values and concentration kinetics of the model drug were compared after infusion into the intestine alone or when infused with cGMP. Atenolol was quantified using conventional liquid chromatography/mass spectrometry methods.
Outbred male rats (Sprague Dawley, Harlan Sprague Dawley, Inc., Indianapolis, Ind.) were housed singly and maintained on a 12-hour light/12-hour dark cycle. All rats used in this bioassay procedure were uninfected with tapeworm. For intestinal infusion, rats (n=2) were lightly sedated, and an indwelling cannula was implanted into the duodenal lumen in each of two rats. […] In brief, the animal preparation involved the following: a cannula was surgically implanted into the duodenal region of each test rat. The cannula extended from the lumen of the duodenum, across the peritoneum, under the skin to the abdominal wall, and finally to an exit from the skin at the nape of the neck. […] During the surgery, both cannulas were filled with sterile saline and plugged with metal pins. Rats were allowed at least five days to recover from implantation surgery before any manipulation occurred. All rats were housed individually after surgery to prevent damage to the cannulas. […]

rat small intestine [5] = test: Effect of cGMP combined with succinate on SSP frequency (Example 3); format: in vivo; conditions: for SSP stimulation (in words): FIG. 5
Protocol: In order to measure intestinal motility, rats were prepared as per […] et al. (1994) as described in the prior Examples. Briefly, electrodes were implanted along the length of the intestine to allow observation of intestinal muscle contraction, and a cannula was implanted in the duodenum to permit the infusion of test substances. After normal intestinal motility was established in each rat, test substances were infused through the duodenal cannula, and myoelectric recordings were used to observe the occurrence of SSP.

[6] = 10 mM, 0.2 ml infused into duodenum
[7] = 1 mM, 0.2 ml infused into duodenum
[8] = 100 mM, 0.2 ml infused into duodenum
[9] = grams of feed consumed/grams of weight gain
[10] = Experiment 2, grams of feed consumed/grams of weight gain

Compound: Nc1nc2c(nc(Br)n2[C@@H]2O[C@@H]3COP(=O)(O)O[C@H]3[C@H]2O)c(=O)[nH]1 [8-Br-cGMP, reference compound]
- SSP/Hr (MEAN ± SE) (rat small intestine [1]; [6]): 0.50 ± 0.31 SSP/Hr
- SSP frequency compared with saline controls / background (in words) (rat small intestine [1]; 10 mM): did not significantly increase

Compound: CC(=O)O [Acetate, reference compound]
- SSP/Hr (MEAN ± SE) (rat small intestine [1]; 50 mM, 0.2 ml infused into duodenum): 0 SSP/Hr
- stimulation / induction of SSP above background levels (in words) (rat small intestine [1]): lack of SSP induction

Compound: N[C@@H](C(=O)O)[C@@H](O)[C@H](O)[C@H](O)CO [D-Glucosaminic Acid, D-glucosaminic acid, reference compound]
- SSP/Hr (MEAN ± SE) (rat small intestine [1]; 0.25 mM, 0.2 ml infused into duodenum): 0 SSP/Hr
- stimulation / induction of SSP above background levels (in words) (rat small intestine [1]): lack of SSP induction

Compound: Nc1nc2nc[nH]c2c(=O)[nH]1 [Guanine suspension, guanine, reference compound]
- SSP/Hr (MEAN ± SE) (rat small intestine [1]; [6]): 0 SSP/Hr

Compound: Nc1nc2nc[nH]c2c(=O)[nH]1 [Guanine, guanine, reference compound]
- SSP/Hr (MEAN ± SE) (rat small intestine [1]; 0.1 mM, 0.2 ml infused into duodenum): 1.33 SSP/Hr
- SSP/Hr (MEAN ± SE) (rat small intestine [1]; [7]): 1.33 ± 0.94 SSP/Hr
- SSP/Hr (MEAN ± SE) (rat small intestine [1]; [6]): 0.33 ± 0.24 SSP/Hr
- SSP frequency compared with saline controls / background (in words) (rat small intestine [1]; 10 mM): not significantly different from saline controls

Compound: Nc1nc2c(ncn2[C@@H]2O[C@H](COP(=O)(O)O)[C@@H](O)[C@H]2O)c(=O)[nH]1 [Guanosine Monophosphate, reference compound]
- SSP/Hr (MEAN ± SE) (rat small intestine [1]; [6]): 0.5 ± 0.3 SSP/Hr

Compound: Nc1nc2c(ncn2[C@@H]2O[C@H](CO)[C@@H](O)[C@H]2O)c(=O)[nH]1 [Guanosine, guanosine, reference compound]
- SSP/Hr (MEAN ± SE) (rat small intestine [1]; [6]): 0.50 ± 0.28 SSP/Hr
- SSP frequency compared with saline controls / background (in words) (rat small intestine [1]; 10 mM): not significantly different from saline controls

Compound: CC(O)C(=O)O (stereo not drawn) [Lactic Acid, reference compound]
- SSP/Hr (MEAN ± SE) (rat small intestine [1]; 20 mM, 0.2 ml infused into duodenum): 0 SSP/Hr
- stimulation / induction of SSP above background levels (in words) (rat small intestine [1]): lack of SSP induction

Compound: O=C(O)CCC(=O)O [Succinate, succinic acid]
- SSP frequency / SSP induction compared with saline controls (in words) (rat small intestine [1]; 100 mM infused into intestinal lumen): failure
- SSP/Hr (MEAN ± SE) (rat small intestine [1]; [8]): 0.33 ± 0.27 SSP/Hr
- stimulation / induction of SSP above background levels (in words) (rat small intestine [1]): does not alter motility
- stimulation / induction of SSP above background levels (in words) (rat small intestine [1]; listed as succinate): lack of SSP induction
- Feed Conversion Ration FCR [2, 9]: 1.561 ± 0.073
- Feed Intake [2]: 2127 ± 257
- Gain [2]: 1372 ± 194

- amount of atenolol in the blood over the 20-minute period, with cGMP versus atenolol alone [4]: almost doubles
Compound: Nc1nc2c(ncn2C2OC3COP(=O)(O)OC3C2O)c(=O)[nH]1 (stereo not drawn) [cGMP, guanosine cyclic 3′, 5′-hydrogen phosphate]
- SSP/Hr (MEAN ± SE) (rat small intestine [1]; 100 nM, 0.2 ml infused into duodenum): 0 SSP/Hr
- SSP/Hr (MEAN ± SE) (rat small intestine [1]; 1 μM, 0.2 ml infused into duodenum): 0 SSP/Hr
- SSP/Hr (MEAN ± SE) (rat small intestine [1]; 10 μM, 0.2 ml infused into duodenum): 0.5 ± 0.25 SSP/Hr
- SSP/Hr (MEAN ± SE) (rat small intestine [1]; 100 μM, 0.2 ml infused into duodenum): 0.66 ± 0.38 SSP/Hr
- SSP/Hr (MEAN ± SE) (rat small intestine [1]; [7]): 0.80 ± 0.18 SSP/Hr
- SSP/Hr (MEAN ± SE) (rat small intestine [1]; 5 mM, 0.2 ml infused into duodenum): 1.60 ± 0.38 SSP/Hr
- SSP/Hr (MEAN ± SE) (rat small intestine [1]; 10 mM + 1 Unit PDE (incubated 30° C. 16 hours before infusion)): 0 SSP/Hr
- ability to stimulate SSP after incubation with phosphodiesterase (PDE) before infusion (in words) (rat small intestine [1]; 10 mM cGMP solution or TCM incubated in PDE before bioassay): lose their ability to stimulate SSP; also recorded: control values
- SSP/Hr (MEAN ± SE) (rat small intestine [1]; [6]): 2.0 ± 0.38 SSP/Hr
- SSP frequency compared with saline controls / background (in words) (rat small intestine [1]; 10 mM): significantly increased
- SSP/Hr (MEAN ± SE) (rat small intestine [1]; 10 mM, boiled before infusion): 1.0 ± 0.47 SSP/Hr
- SSP/Hr (MEAN ± SE) (rat small intestine [1]; [8]): 1.50 ± 0.46 SSP/Hr
- SSP/Hr (MEAN ± SE) (rat small intestine [1]; 0.5 M, 0.2 ml infused into duodenum): 1.25 ± 0.41 SSP/Hr
- lumenal dose range with significant increase in SSP frequency (rat small intestine [1]; FIG. 2, versus saline, Student t-test): 1 to 100 mM
- stimulation / induction of SSP above background levels (in words) (rat small intestine [1]): initiated SSP myoelectric patterns
- initiation of SSP pattern in the small intestine (in words) (rat small intestine [3]; 0.3 ml of 10 mM into the stomach per os): lack of intestinal response
- initiation of SSP pattern in the small intestine (in words) (rat small intestine [3]; 0.3 ml of 100 mM into the stomach per os): lack of intestinal response
- initiation of SSP pattern in the small intestine (in words) (rat small intestine [3]; 1.0 ml of 100 mM injected intraperitoneally): lack of intestinal response
- SSP stimulation (in words) (rat small intestine [5]; 2.8 nM cGMP alone): did not stimulate SSP above the background; also recorded: generally does not produce
- SSP stimulation (in words) (rat small intestine [5]; 10 mM cGMP alone): produces
- concentrations of cGMP alone incapable of stimulating SSP (rat small intestine [5]; cGMP infused alone): below 1 mM
- cGMP concentration required to activate SSP response (rat small intestine [5]; without succinate): about 10 mM
- Feed Conversion Ration FCR [2, 9]: 1.535 ± 0.094
- Feed Intake [2]: 2334 ± 144
- Gain [2]: 1548 ± 65
- FCR Week 1 [2, 10]: 1.635 ± 0.093
- FCR Week 2 [2, 10]: 1.459 ± 0.058
- FCR Week 3 [2, 10]: 1.580 ± 0.059

Compound: O=c1[nH]cnc2c1ncn2[C@@H]1O[C@@H]2COP(=O)(O)O[C@H]2[C@H]1O [cIMP, reference compound]
- stimulation / induction of SSP above background levels (in words) (rat small intestine [1]): no response

Compound: O=c1ccn([C@@H]2O[C@@H]3COP(=O)(O)O[C@H]3[C@H]2O)c(=O)[nH]1 [cUMP, reference compound]
- stimulation / induction of SSP above background levels (in words) (rat small intestine [1]): no response
